What was measured:
Assay in all cases: KinomeScan
Type in all cases: binding
Details in all cases: 1 μM
CDKL2 = molecular target: T1, CDKL2 (Homo sapiens, UniProt Q92772)
T1 construct: purchased DiscoverX (KINOMEscan)

CLK4 = molecular target: T2, CLK4 (Homo sapiens, UniProt Q9HAZ1)
T2 construct: purchased DiscoverX (KINOMEscan)

CSNK2A1 = molecular target: T3, CSNK2A1 (Homo sapiens, UniProt P68400)
T3 construct: purchased DiscoverX (KINOMEscan)

DAPK3 = molecular target: T4, DAPK3 (Homo sapiens, UniProt O43293)
T4 construct: purchased DiscoverX (KINOMEscan)

DLK = molecular target: T5, DLK (Homo sapiens, UniProt Q12852)
T5 construct: purchased DiscoverX (KINOMEscan)

DYRK2 = molecular target: T6, DYRK2 (Homo sapiens, UniProt Q92630)
T6 sequence (Q92630 1-601): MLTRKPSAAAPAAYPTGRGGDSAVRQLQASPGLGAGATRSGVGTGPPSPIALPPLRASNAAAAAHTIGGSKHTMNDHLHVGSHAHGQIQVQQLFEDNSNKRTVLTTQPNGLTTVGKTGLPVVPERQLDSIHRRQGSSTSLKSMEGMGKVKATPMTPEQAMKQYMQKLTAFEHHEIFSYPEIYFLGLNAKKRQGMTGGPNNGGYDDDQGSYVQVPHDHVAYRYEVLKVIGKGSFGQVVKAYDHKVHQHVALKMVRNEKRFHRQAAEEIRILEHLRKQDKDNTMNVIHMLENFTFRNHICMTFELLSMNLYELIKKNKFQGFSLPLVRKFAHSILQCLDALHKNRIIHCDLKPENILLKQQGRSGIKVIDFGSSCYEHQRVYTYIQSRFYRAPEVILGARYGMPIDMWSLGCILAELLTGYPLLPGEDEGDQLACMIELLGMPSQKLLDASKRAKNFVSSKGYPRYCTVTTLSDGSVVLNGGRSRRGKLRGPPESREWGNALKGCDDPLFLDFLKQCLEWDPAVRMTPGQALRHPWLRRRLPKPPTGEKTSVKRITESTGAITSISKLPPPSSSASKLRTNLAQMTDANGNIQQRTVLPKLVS

EGFR(T790M) = molecular target: T7, EGFR(T790M) (Homo sapiens, UniProt P00533, T790M)
T7 construct: purchased DiscoverX (KINOMEscan)

EPHB2 = molecular target: T8, EPHB2 (Homo sapiens, UniProt P29323)
T8 construct: purchased DiscoverX (KINOMEscan)

FGFR3 = molecular target: T9, FGFR3 (Homo sapiens, UniProt P22607)
T9 construct: purchased DiscoverX (KINOMEscan)

FYN = molecular target: T10, FYN (Homo sapiens, UniProt P06241)
T10 construct: purchased DiscoverX (KINOMEscan)

HCK = molecular target: T11, HCK (Homo sapiens, UniProt P08631)
T11 construct: purchased DiscoverX (KINOMEscan)

HIPK4 = molecular target: T12, HIPK4 (Homo sapiens, UniProt Q8NE63)
T12 construct: purchased DiscoverX (KINOMEscan)

HUNK = molecular target: T13, HUNK (Homo sapiens, UniProt P57058)
T13 construct: purchased DiscoverX (KINOMEscan)

IRAK1 = molecular target: T14, IRAK1 (Homo sapiens, UniProt P51617)
T14 construct: purchased DiscoverX (KINOMEscan)

[1] = molecular target: T15, JAK2(JH1domain-catalytic) (Homo sapiens, UniProt O60674)
T15 construct: JAK2(JH1domain-catalytic); purchased DiscoverX (KINOMEscan)

KIT(A829P) = molecular target: T16, KIT(A829P) (Homo sapiens, UniProt P10721, A829P)
T16 construct: purchased DiscoverX (KINOMEscan)

LATS2 = molecular target: T17, LATS2 (Homo sapiens, UniProt Q9NRM7)
T17 construct: purchased DiscoverX (KINOMEscan)

LCK = molecular target: T18, LCK (Homo sapiens, UniProt P06239)
T18 construct: purchased DiscoverX (KINOMEscan)

LIMK1 = molecular target: T19, LIMK1 (Homo sapiens, UniProt P53667)
T19 construct: purchased DiscoverX (KINOMEscan)

LKB1 = molecular target: T20, LKB1 (Homo sapiens, UniProt Q15831)
T20 construct: purchased DiscoverX (KINOMEscan)

LOK = molecular target: T21, LOK (Homo sapiens, UniProt O94804)
T21 construct: purchased DiscoverX (KINOMEscan)

MAPKAPK5 = molecular target: T22, MAPKAPK5 (Homo sapiens, UniProt Q8IW41)
T22 construct: purchased DiscoverX (KINOMEscan)

MARK4 = molecular target: T23, MARK4 (Homo sapiens, UniProt Q96L34)
T23 construct: purchased DiscoverX (KINOMEscan)

MINK = molecular target: T24, MINK (Homo sapiens, UniProt Q8N4C8)
T24 construct: purchased DiscoverX (KINOMEscan)

NEK9 = molecular target: T25, NEK9 (Homo sapiens, UniProt Q8TD19)
T25 construct: purchased DiscoverX (KINOMEscan)

STK36 = molecular target: T26, STK36 (Homo sapiens, UniProt Q9NRP7)
T26 construct: purchased DiscoverX (KINOMEscan)

TBK1 = molecular target: T27, TBK1 (Homo sapiens, UniProt Q9UHD2)
T27 construct: purchased DiscoverX (KINOMEscan)

TEC = molecular target: T28, TEC (Homo sapiens, UniProt P42680)
T28 construct: purchased DiscoverX (KINOMEscan)

TRKB = molecular target: T29, TRKB (Homo sapiens, UniProt Q16620)
T29 construct: purchased DiscoverX (KINOMEscan)

T23 sequence (Q96L34 whole entry): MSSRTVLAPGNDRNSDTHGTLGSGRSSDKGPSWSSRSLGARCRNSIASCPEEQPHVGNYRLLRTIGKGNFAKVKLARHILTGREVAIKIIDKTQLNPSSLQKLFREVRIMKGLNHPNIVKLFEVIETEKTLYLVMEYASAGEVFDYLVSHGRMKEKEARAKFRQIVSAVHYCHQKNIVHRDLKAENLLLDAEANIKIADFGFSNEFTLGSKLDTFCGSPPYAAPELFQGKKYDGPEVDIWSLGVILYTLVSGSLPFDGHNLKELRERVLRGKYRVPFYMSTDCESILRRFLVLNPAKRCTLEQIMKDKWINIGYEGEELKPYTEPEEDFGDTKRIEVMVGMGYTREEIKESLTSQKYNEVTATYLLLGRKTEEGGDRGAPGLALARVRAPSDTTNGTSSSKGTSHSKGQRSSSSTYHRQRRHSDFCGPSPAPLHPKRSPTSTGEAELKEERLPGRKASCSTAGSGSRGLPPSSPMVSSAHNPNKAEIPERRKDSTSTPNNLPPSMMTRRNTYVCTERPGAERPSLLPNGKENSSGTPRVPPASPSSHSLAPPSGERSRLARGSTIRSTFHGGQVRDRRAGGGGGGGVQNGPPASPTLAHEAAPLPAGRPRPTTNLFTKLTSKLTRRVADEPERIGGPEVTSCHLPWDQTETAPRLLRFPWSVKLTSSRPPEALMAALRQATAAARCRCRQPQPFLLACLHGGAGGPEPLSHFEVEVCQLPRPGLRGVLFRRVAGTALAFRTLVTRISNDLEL
T27 sequence (Q9UHD2 whole entry): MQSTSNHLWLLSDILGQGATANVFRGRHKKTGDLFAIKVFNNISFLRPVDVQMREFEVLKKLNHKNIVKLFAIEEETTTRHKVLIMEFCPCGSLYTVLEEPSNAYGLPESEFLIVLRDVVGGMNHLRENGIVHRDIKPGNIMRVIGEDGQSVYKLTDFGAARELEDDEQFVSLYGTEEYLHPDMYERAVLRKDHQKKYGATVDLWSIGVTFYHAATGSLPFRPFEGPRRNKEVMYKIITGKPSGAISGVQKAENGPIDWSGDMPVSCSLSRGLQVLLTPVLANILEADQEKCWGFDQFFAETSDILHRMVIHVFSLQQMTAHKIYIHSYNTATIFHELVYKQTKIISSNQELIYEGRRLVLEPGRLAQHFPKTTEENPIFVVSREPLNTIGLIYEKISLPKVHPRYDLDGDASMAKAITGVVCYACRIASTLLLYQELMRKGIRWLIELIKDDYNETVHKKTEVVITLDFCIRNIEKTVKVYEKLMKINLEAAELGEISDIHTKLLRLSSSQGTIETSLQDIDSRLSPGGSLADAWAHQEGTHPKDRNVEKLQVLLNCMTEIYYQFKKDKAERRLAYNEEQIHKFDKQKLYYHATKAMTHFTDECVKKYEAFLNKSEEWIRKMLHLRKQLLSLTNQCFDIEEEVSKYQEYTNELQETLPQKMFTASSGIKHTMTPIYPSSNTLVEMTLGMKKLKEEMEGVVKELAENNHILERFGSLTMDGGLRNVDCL
T22 sequence (Q8IW41 whole entry): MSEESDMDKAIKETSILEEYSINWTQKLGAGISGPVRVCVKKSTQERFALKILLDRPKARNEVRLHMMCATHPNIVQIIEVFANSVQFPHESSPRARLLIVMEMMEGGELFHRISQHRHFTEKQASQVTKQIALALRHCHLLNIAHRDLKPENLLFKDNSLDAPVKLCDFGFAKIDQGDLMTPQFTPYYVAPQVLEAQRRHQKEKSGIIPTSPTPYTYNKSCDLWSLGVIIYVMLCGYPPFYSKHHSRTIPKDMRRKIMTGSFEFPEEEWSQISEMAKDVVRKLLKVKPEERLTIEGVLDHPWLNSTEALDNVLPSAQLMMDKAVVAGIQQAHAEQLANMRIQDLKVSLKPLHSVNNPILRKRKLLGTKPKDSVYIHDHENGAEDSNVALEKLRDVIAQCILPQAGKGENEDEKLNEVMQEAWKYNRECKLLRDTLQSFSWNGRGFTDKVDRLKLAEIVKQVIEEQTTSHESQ
T25 sequence (Q8TD19 whole entry): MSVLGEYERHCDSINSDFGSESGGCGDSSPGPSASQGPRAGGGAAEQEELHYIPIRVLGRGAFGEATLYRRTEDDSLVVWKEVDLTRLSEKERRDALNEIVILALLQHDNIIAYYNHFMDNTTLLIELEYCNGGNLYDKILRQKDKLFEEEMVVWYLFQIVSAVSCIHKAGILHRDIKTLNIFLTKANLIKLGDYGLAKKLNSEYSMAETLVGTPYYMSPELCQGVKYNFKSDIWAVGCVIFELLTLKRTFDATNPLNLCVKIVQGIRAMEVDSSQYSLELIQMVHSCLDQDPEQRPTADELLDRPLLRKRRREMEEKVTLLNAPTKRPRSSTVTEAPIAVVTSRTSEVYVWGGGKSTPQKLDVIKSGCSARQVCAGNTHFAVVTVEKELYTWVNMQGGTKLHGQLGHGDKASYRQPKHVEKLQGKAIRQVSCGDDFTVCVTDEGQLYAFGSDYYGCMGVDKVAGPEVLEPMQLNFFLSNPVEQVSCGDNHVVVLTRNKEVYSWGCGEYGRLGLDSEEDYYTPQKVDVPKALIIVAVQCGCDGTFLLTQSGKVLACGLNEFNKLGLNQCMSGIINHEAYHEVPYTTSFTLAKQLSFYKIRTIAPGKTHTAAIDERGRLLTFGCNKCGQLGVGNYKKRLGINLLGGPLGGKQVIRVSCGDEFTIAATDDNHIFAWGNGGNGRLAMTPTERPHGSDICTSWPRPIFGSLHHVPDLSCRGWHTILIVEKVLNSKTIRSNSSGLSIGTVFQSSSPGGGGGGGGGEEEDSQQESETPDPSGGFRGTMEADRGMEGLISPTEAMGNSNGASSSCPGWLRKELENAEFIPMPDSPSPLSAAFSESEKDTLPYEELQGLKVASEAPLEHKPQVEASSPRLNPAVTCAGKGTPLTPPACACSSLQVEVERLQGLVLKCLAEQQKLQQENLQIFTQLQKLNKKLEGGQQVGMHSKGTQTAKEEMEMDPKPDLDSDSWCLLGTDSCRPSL
T12 sequence (Q8NE63 whole entry): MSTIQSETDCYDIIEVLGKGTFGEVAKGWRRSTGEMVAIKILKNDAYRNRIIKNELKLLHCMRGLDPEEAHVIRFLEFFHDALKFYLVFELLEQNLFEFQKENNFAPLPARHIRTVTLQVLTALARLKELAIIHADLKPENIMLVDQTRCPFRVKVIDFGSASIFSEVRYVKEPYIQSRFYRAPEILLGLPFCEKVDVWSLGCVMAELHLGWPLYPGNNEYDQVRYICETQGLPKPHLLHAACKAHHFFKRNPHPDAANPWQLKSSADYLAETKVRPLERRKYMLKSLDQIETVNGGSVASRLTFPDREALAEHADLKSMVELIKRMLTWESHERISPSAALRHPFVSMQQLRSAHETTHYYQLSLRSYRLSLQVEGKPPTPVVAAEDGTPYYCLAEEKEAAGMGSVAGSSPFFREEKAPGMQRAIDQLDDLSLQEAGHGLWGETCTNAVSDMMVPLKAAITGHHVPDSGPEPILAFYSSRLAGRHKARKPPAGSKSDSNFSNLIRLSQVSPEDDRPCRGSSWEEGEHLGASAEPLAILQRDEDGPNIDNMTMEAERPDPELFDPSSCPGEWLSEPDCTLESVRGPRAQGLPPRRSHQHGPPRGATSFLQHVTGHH
T4 sequence (O43293 whole entry): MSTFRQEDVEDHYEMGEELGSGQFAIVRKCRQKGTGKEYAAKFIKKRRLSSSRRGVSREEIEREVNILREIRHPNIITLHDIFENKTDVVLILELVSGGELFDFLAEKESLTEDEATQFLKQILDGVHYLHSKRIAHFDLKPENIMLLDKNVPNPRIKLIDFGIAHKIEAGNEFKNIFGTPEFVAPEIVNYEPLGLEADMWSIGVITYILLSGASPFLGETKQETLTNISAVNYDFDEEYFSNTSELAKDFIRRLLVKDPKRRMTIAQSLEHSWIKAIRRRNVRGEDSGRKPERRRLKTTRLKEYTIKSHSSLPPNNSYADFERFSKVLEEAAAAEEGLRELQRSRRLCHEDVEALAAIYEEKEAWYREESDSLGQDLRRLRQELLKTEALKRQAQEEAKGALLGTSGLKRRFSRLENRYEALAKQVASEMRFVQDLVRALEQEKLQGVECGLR
T18 sequence (P06239 whole entry): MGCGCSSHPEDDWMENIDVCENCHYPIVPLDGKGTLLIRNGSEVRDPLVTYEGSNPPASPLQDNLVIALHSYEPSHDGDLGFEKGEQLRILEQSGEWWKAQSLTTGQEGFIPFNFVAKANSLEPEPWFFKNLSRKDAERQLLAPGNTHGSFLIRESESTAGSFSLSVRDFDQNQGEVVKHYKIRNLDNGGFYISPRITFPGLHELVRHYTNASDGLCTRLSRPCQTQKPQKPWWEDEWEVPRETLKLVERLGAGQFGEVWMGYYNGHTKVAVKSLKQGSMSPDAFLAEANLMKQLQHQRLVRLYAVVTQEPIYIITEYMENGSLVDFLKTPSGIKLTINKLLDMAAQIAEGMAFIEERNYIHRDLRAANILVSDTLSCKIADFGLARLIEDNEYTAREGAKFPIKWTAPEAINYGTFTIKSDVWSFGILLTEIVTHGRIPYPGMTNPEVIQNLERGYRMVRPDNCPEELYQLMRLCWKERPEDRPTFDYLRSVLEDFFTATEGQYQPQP
T15 sequence (O60674 840-1132 limits assumed): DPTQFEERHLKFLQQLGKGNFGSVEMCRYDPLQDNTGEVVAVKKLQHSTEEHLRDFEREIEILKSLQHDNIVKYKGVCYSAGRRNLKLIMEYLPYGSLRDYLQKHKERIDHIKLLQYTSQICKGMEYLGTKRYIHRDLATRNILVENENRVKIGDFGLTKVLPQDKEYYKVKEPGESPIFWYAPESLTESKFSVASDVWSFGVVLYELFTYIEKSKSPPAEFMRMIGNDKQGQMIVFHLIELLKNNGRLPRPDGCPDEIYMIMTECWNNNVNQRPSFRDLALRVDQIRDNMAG

With COc1cc(/C=C2\N=C(N)NC2=O)ccc1O [Polyandrocarpamine A] the Score (CDKL2) was 100, the Score (CLK4) was 30 and the Score (CSNK2A1) was 12. It also gave a Score (DAPK3) of 50, a Score (DLK) of 100 and a Score (DYRK2) of 24. For the same molecule, the Score (EGFR(T790M)) was 93, the Score (EPHB2) was 79 and the Score (FGFR3) was 100. The Score (FYN) was 100, the Score (HCK) was 100 and the Score (HIPK4) was 85. The Score (HUNK) was 100, the Score (IRAK1) was 28 and the Score [1] was 97. For the same molecule, the Score (KIT(A829P)) was 91, the Score (LATS2) was 100 and the Score (LCK) was 100. For the same molecule, the Score (LIMK1) was 100, the Score (LKB1) was 100 and the Score (LOK) was 100. It also gave a Score (MAPKAPK5) of 100, a Score (MARK4) of 100 and a Score (MINK) of 100. For the same molecule, the Score (NEK9) was 100, the Score (STK36) was 96 and the Score (TBK1) was 100. It also gave a Score (TEC) of 98 and a Score (TRKB) of 100.

— PMC5666424, “Marine-Derived 2-Aminoimidazolone Alkaloids. Leucettamine B-Related Polyandrocarpamines Inhibit Mammalian and Protozoan DYRK & CLK Kinases” (Marine Drugs, 2017)
